Paper PMC3434256 (Journal of the American Chemical Society, 2012)
“And” between values parts separate entries of the source, which are not always exact repeats. Equal entries are not always repeated. Where two headings read alike, the source gives them in different places. Marks after values point to notes of the source that are not given here. Values belong to the compound of their own block, whether it stands above or below them.

Tests used:
[1] = Nonenzymatic C-6 deuterium exchange catalyzed by deuterioxide ion in D2O; conditions: for kDO, second-order rate constant for deuterioxide-ion-catalyzed deuterium exchange at C-6: D2O; for kDO, second-order rate constant for deuterioxide-ion-catalyzed deuterium exchange at C-6 / kHO, second-order rate constant for proton transfer from C-6 to hydroxide ion: 25 °C; for kHO, second-order rate constant for proton transfer from C-6 to hydroxide ion: H2O, calculated from kDO using kDO/kHO = 2.4; for (Keq)aq, equilibrium constant for proton transfer from C-6 to a primary amine base of pKRNH3 = 7 in water: eq 12, pKCH of model nucleosides uridine and 5-fluorouridine
ScOMPDC [2] = conditions: cited from earlier work; for Kd: read-out: (Kd)obsd, observed affinity of ScOMPDC, pH 7.2, H2O
[3] = cited from earlier work
[4] = molecular target: T1, yeast orotidine 5′-monophosphate decarboxylase (ScOMPDC) (Saccharomyces cerevisiae, UniProt P03962, A160S/C155S/N267D/S2H); conditions: for kex, turnover number for deuterium exchange into enzyme-bound substrate / kex/Kd, second-order rate constant for enzyme-catalyzed deuterium exchange / (kex)max, intrinsic first-order rate constant (turnover number) for deuterium exchange into saturating substrate bound to the deprotonated enzyme: I = 0.1 (NaCl); for kex/Kd, second-order rate constant for enzyme-catalyzed deuterium exchange: ratio of kex and Kd; for free energy of binding to form the Michaelis complex: deprotonated enzyme; for (Keq)enz, equilibrium constant for proton transfer from C-6 of bound nucleotide to ScOMPDC: eq 11, krot = 10^7 s^−1; for Kd′/Kd, ratio of dissociation constants from protonated and deprotonated enzyme: from pKE - pKES; for stabilization of enzyme-bound vinyl carbanion relative to bound nucleotide: lower limit; for (kex)max, intrinsic first-order rate constant (turnover number) for deuterium exchange into saturating substrate bound to the deprotonated enzyme: pD-rate profile of kex fit to eq 7, D2O, 25 °C
T1 sequence (P03962 whole entry S2H/C155S/A160S/N267D): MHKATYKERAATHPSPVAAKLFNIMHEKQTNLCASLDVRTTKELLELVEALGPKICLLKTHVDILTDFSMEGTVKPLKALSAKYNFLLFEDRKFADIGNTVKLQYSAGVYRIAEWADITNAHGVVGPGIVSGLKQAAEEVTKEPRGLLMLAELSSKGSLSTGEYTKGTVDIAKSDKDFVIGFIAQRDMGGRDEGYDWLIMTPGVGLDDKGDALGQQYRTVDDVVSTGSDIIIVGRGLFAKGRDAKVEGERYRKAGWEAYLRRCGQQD

[5] = pKa of the N-3 hydron, spectrophotometric; format: physicochemical
[6] = molecular target: T1, yeast orotidine 5′-monophosphate decarboxylase (ScOMPDC); assay: biochemical
[7] = pKa of the phosphoryl group by titration; format: physicochemical; conditions: D2O, I = 0.1, estimated from UMP pKa in H2O plus 0.5 unit
[8] = aqueous solution; cited from earlier work
[9] = titration, H2O, 25 °C, I = 0.1; cited from earlier work
ScOMPDC [10] = conditions: pH 7.1, 25 °C; cited from earlier work

kDO, second-order rate constant for deuterioxide-ion-catalyzed deuterium exchange at C-6 [1]: 0.043 M⁻¹ s⁻¹
kHO, second-order rate constant for proton transfer from C-6 to hydroxide ion [1]: 0.018 M⁻¹ s⁻¹
Structure (SMILES): Cn1cc(F)c(=O)n(C)c1=O

Structure (SMILES): O=c1ccn([C@H]2C[C@H](O)[C@@H](COP(=O)(O)O)O2)c(=O)[nH]1 [2′-deoxyuridine 5′-monophosphate]
Kd (ScOMPDC [2]): 170 µM

kDO, second-order rate constant for deuterioxide-ion-catalyzed deuterium exchange at C-6 [1]: 6.8e-05 M⁻¹ s⁻¹
kHO, second-order rate constant for proton transfer from C-6 to hydroxide ion [1]: 2.8e-05 M⁻¹ s⁻¹
Structure (SMILES): O=c1[nH]c(=O)n(C2OC(CO)C(O)C2O)cc1F (stereo not drawn) [5-Fluorouridine N-3 Anion, 5-fluorouridine N-3 anion]

kDO, second-order rate constant for deuterioxide-ion-catalyzed deuterium exchange at C-6 [1]: 1.7 M⁻¹ s⁻¹
kHO, second-order rate constant for proton transfer from C-6 to hydroxide ion [1]: 0.71 M⁻¹ s⁻¹
ko = kHO[HO^−], observed rate constant for C-6 deprotonation by hydroxide ion ([1]; water, pH 7.1): 9e-08 s⁻¹
Structure (SMILES): O=c1[nH]c(=O)n([C@@H]2O[C@H](CO)[C@@H](O)[C@H]2O)cc1F [5-Fluorouridine, 5-fluorouridine]

Structure (SMILES): O=c1[nH]c(=O)n([C@H]2C[C@H](O)[C@@H](COP(=O)(O)O)O2)cc1F [5-fluoro-2′-deoxyuridine 5′-monophosphate]
Kd (ScOMPDC [2]): 250 µM
pKa of the N-3 proton (pKNH) ([3]; H2O, 25 °C, I = 0.1): 7.90

Structure (SMILES): O=c1[nH]c(=O)n([C@H]2C[C@H](O)[C@@H](CO)O2)cc1F [5-fluoro-2′-deoxyuridine]
pKa of the N-3 proton ([3]; H2O, 25 °C, I = 0.1): 7.67

Structure (SMILES): O=c1cnn([C@@H]2O[C@H](COP(=O)(O)O)[C@@H](O)[C@H]2O)c(=O)[nH]1 [6-aza-UMP, 6-azauridine 5′-monophosphate]
Ki (ScOMPDC [2]; pH 7.2, competitive inhibitor): 0.093 µM
deuterium exchange into UMP (2 mM) in the presence of inhibitor ([4]; 2 mM 6-aza-UMP, 260 μM ScOMPDC, 2 days, pD 9.3, 25 °C): no detectable deuterium exchange

Structure (SMILES): O=c1[nH]c(=O)n([C@@H]2O[C@H](COP(=O)(O)O)[C@@H](O)[C@H]2O)cc1F [F-UMP, 5-fluorouridine 5′-monophosphate]
pKa ([5]; buffered D2O): 8.37 ± 0.05
pKa ([5]; buffered H2O): 7.84 ± 0.03
Kd [6]: 140 µM
pKSD2, ionization of the phosphoryl group [7]: 6.8
decrease in pKa of the side chain of Lys-93 upon binding (pKE - pKES) [4]: 1.4 unit
transition state stabilization for deuterium exchange [4]: 14 kcal/mol
kex, turnover number for deuterium exchange into enzyme-bound substrate ([4]; D2O, pD 6.45, 25 °C, fit to eq 5): 0.00818 s⁻¹
kex/Kd, second-order rate constant for enzyme-catalyzed deuterium exchange ([4]; D2O, pD 6.45, 25 °C): 8.3 M⁻¹ s⁻¹
kex, turnover number for deuterium exchange into enzyme-bound substrate ([4]; D2O, pD 7.03, 25 °C, fit to eq 5): 0.0169 s⁻¹
kex/Kd, second-order rate constant for enzyme-catalyzed deuterium exchange ([4]; D2O, pD 7.03, 25 °C): 33 M⁻¹ s⁻¹
kex, turnover number for deuterium exchange into enzyme-bound substrate ([4]; D2O, pD 7.37, 25 °C, fit to eq 5): 0.0242 s⁻¹
kex/Kd, second-order rate constant for enzyme-catalyzed deuterium exchange ([4]; D2O, pD 7.37, 25 °C): 140 M⁻¹ s⁻¹
kex, turnover number for deuterium exchange into enzyme-bound substrate ([4]; D2O, pD 7.64, 25 °C, fit to eq 5): 0.0324 s⁻¹
kex/Kd, second-order rate constant for enzyme-catalyzed deuterium exchange ([4]; D2O, pD 7.64, 25 °C): 300 M⁻¹ s⁻¹
kex for deuterium exchange ([4]; D2O, pD 8.15, 25 °C, I = 0.10 (NaCl), fit of kobsd/[E] to eq 4): 0.048 s⁻¹
kex, turnover number for deuterium exchange into enzyme-bound substrate ([4]; D2O, pD 8.15, 25 °C, fit to eq 5): 0.0438 s⁻¹
kex/Kd, second-order rate constant for enzyme-catalyzed deuterium exchange ([4]; D2O, pD 8.15, 25 °C): 400 M⁻¹ s⁻¹
kex, turnover number for deuterium exchange into enzyme-bound substrate ([4]; D2O, pD 9.33, 25 °C, fit to eq 5): 0.0384 s⁻¹
kex/Kd, second-order rate constant for enzyme-catalyzed deuterium exchange ([4]; D2O, pD 9.33, 25 °C): 200 M⁻¹ s⁻¹
stabilization of the transition state for deuterium exchange by the 5-fluoro substituent ([4]; F-UMP vs UMP): 4.8 kcal/mol
pKE, pKa of the essential residue at the free enzyme ([4]; Saccharomyces cerevisiae): 8.5 ± 0.2 ^d
pKES, pKa of the essential residue (Lys-93) at the E•S complex ([4]; Saccharomyces cerevisiae): 7.1 ± 0.1 ^f
free energy of binding to form the Michaelis complex [4]: 6.4 kcal/mol
(Keq)enz, equilibrium constant for proton transfer from C-6 of bound nucleotide to ScOMPDC [4]: 4.1 × 10^−9
Kd′/Kd, ratio of dissociation constants from protonated and deprotonated enzyme [4]: 25
stabilization of enzyme-bound vinyl carbanion relative to bound nucleotide [4]: at least 13 kcal/mol
(kex)max, intrinsic first-order rate constant (turnover number) for deuterium exchange into saturating substrate bound to the deprotonated enzyme [4]: 0.041 s⁻¹
total enzymatic rate acceleration for deuterium exchange ([4]; ratio of (kex)max/Kd and ko for 5-fluorouridine at pH 7.1): 3e+10 M⁻¹
(Keq)aq, equilibrium constant for proton transfer from C-6 to a primary amine base of pKRNH3 = 7 in water [1]: 8 × 10^−19

Structure (SMILES): O=C(O)c1cc(=O)[nH]c(=O)n1[C@@H]1O[C@H](COP(=O)(O)O)[C@@H](O)[C@H]1O [OMP, orotidine 5′-monophosphate]
ko, nonenzymatic decarboxylation [8]: 2.8e-16 s⁻¹
pKa of the phosphoryl group [9]: 6.38
kcat for decarboxylation (ScOMPDC [10]): 15 s⁻¹

Structure (SMILES): O=c1ccn([C@@H]2O[C@H](COP(=O)(O)O)[C@@H](O)[C@H]2O)c(=O)[nH]1 [UMP, uridine 5′-monophosphate]
pKa of the phosphoryl group [9]: 6.26 and 6.3
pKa of the N-3 proton (pKNH) ([3]; H2O, 25 °C, I = 0.1): 9.7
pKNH ([3]; ref Jencks, Regenstein, Handbook of Biochemistry and Molecular Biology 1976): 9.5
decrease in pKa of the side chain of Lys-93 upon binding (pKE - pKES) [4]: 0.5 unit
kex, turnover number for deuterium exchange into enzyme-bound substrate ([4]; D2O, pD 7.03, 25 °C, average of kobsd[UMP]o/[E]): 1.2e-06 s⁻¹
kex, turnover number for deuterium exchange into enzyme-bound substrate ([4]; D2O, pD 7.58, 25 °C, average of kobsd[UMP]o/[E]): 3.19e-06 s⁻¹
kex, turnover number for deuterium exchange into enzyme-bound substrate ([4]; D2O, pD 8.13, 25 °C, average of kobsd[UMP]o/[E]): 7.53e-06 s⁻¹
kex, turnover number for deuterium exchange into enzyme-bound substrate ([4]; D2O, pD 9.34, 25 °C, average of kobsd[UMP]o/[E]): 1.15e-05 s⁻¹
free energy of binding to form the Michaelis complex [4]: 6.4 kcal/mol
(Keq)enz, equilibrium constant for proton transfer from C-6 of bound nucleotide to ScOMPDC [4]: 1.2 × 10^−12
Kd′/Kd, ratio of dissociation constants from protonated and deprotonated enzyme [4]: 3
stabilization of enzyme-bound vinyl carbanion relative to bound nucleotide [4]: at least 13 kcal/mol
hydrolysis of the 5′-phosphoryl group during exchange reaction ([4]; pD 7.0): up to 19%
hydrolysis of the glycosidic bond to give uracil during exchange reaction ([4]; pD 7.0): up to 24%
hydrolysis of the 5′-phosphoryl group to give uridine during exchange reaction ([4]; pD 7.6 – 9.3): up to 4%
(kex)max, intrinsic first-order rate constant (turnover number) for deuterium exchange into saturating substrate bound to the deprotonated enzyme [4]: 1.2e-05 s⁻¹
(Keq)aq, equilibrium constant for proton transfer from C-6 to a primary amine base of pKRNH3 = 7 in water [1]: 2 × 10^−22

kDO, second-order rate constant for deuterioxide-ion-catalyzed deuterium exchange at C-6 [1]: 1.5e-08 M⁻¹ s⁻¹
kHO, second-order rate constant for proton transfer from C-6 to hydroxide ion [1]: 6.3e-09 M⁻¹ s⁻¹
Structure (SMILES): O=c1ccn([C@@H]2O[C@H](CO)[C@@H](O)[C@H]2O)c(=O)[nH]1 [Uridine N-3 Anion, uridine N-3 anion]

kHO, second-order rate constant for proton transfer from C-6 to hydroxide ion [1]: 0.00016 M⁻¹ s⁻¹
Structure (SMILES): O=c1ccn([C@@H]2O[C@H](CO)[C@@H](O)[C@H]2O)c(=O)[nH]1 [Uridine, uridine]

Structure (SMILES): O=C[C@H](O)[C@H](O)[C@H](O)COP(=O)(O)O [ribose 5′-monophosphate]
pKa of the phosphoryl group [9]: 6.25
